According to article PMC4821887, “Identification of chemicals that mimic transcriptional changes associated with autism, brain aging and neurodegeneration” (Nature Communications, 2016):
Counter-ions that a name gives are not always drawn. Like-named read-outs stand apart in the source and are kept apart here.

System: mouse cortical neuron cultures

Compound | % Dead cells (vehicle subtracted) [%] | % Dead cells (vehicle subtracted) (mouse, 24 h, 10 µM) [%] | also measured
CCCN(CCOc1c(Cl)cc(Cl)cc1Cl)C(=O)n1ccnc1 [Prochloraz] | -2.048 | – | –
CON(C)C(=O)Nc1ccc(Cl)c(Cl)c1 [Linuron] | -0.9348 | – | –
Cc1cc(C2CC2)nc(Nc2ccccc2)n1 [Cyprodinil] | – | -6.385 | –
COP(N)(=O)SC (centres unmarked) [Methamidophos] | -1.5388 | – | –
Cc1ccc(-c2c(Cl)nc(C#N)n2S(=O)(=O)N(C)C)cc1 [Cyazofamid] | – | -1.678 | –
N#Cc1cc(Br)c(O)c(Br)c1 | -1.631 | – | –
COP(=O)(OC)C(O)C(Cl)(Cl)Cl (centres unmarked) [Trichlorfon] | 2.414 | – | –
CCOP(=O)(OCC)Oc1cc(C)nc(C(C)C)n1 [Diazoxon] | -0.938 | – | –
CCOC(=O)C(C)Oc1ccc(Oc2nc3ccc(Cl)cc3o2)cc1 (centres unmarked) [Fenoxaprop-ethyl] | – | 9.924 | –
CN1COCN(Cc2cnc(Cl)s2)/C1=N\[N+](=O)[O-] [Thiamethoxam] | 1.407 | – | –
CCC/C(=N\OCC)C1=C(O)CC(CC(C)SCC)CC1=O (centres unmarked) [Sethoxydim] | -0.798 | – | –
CCNP(=S)(OC)O/C(C)=C/C(=O)OC(C)C (centres unmarked) [Propetamphos] | -0.3061 | – | –
CN(C)c1nc(=O)n(C2CCCCC2)c(=O)n1C [Hexazinone] | – | -2.629 | –
CSc1nc(NC(C)C)nc(NC(C)C)n1 [Prometryn] | – | -5.322 | –
C#CCN1C(=O)COc2cc(F)c(N3C(=O)C4=C(CCCC4)C3=O)cc21 [Flumioxazin] | 7.054 | – | –
CCCN(CCC)c1c([N+](=O)[O-])cc(C(F)(F)F)c(N)c1[N+](=O)[O-] [Prodiamine] | -0.1982 | – | –
Cc1ccccc1CO[C@@H]1C[C@@]2(C(C)C)CC[C@]1(C)O2 (racemic) [Cinmethylin] | -0.5547 | – | –
FC(F)C(F)(F)OCC(Cn1cncn1)c1ccc(Cl)cc1Cl (centres unmarked) [Tetraconazole] | – | 2.833 | –
O=S(=O)(O)C(F)(F)C(F)(F)C(F)(F)C(F)(F)C(F)(F)C(F)(F)C(F)(F)C(F)(F)F [Perfluorooctane sulfonic acid] | 6.21 | – | –
CCCN(CCC)c1c([N+](=O)[O-])cc(C(F)(F)F)cc1[N+](=O)[O-] [Trifluralin] | 0.2689 | – | –
C[C@@H]1[C@@H](c2ccc(Cl)cc2)SC(=O)N1C(=O)NC1CCCCC1 [Hexythiazox] | 0.5871 | – | –
C/C(=N\C#N)N(C)Cc1ccc(Cl)nc1 [Acetamiprid] | 2.983 | – | –

Compound | % Dead cells (vehicle subtracted) [%] | % Dead cells (vehicle subtracted) (mouse, 24 h, 10 µM) [%] | also measured
CCCCCCC(C)OC(=O)COc1nc(F)c(Cl)c(N)c1Cl (centres unmarked) [Fluroxypyr-meptyl] | -1.2099 | – | –
CCC(C)OC(=O)N1CCCCC1CCO (centres unmarked) [Icaridin] | 2.044 | – | –
CCC(CC)Nc1c([N+](=O)[O-])cc(C)c(C)c1[N+](=O)[O-] [Pendimethalin] | 0.8617 | – | –
O=C(O)COc1nc(Cl)c(Cl)cc1Cl [Triclopyr] | -0.8572 | – | –
CCc1cccc(CC)c1N(COC)C(=O)CCl [Alachlor] | 3.545 | – | –
CCOC(=O)COc1cc(-n2ncc(C(F)(F)F)c(C)c2=O)c(F)cc1Cl [Flufenpyr-ethyl] | -1.575 | – | –
N#Cc1c(Cl)cccc1Cl [Dichlobenil] | – | 8.856 | –
CC1(C)C(C=C(Cl)Cl)C1C(=O)OC(C#N)c1cccc(Oc2ccccc2)c1 (centres unmarked) [Cypermethrin] | – | -3.377 | –
c1ccc2[nH]c(-c3cscn3)nc2c1 [Thiabendazole] | – | -3.658 | –
CCOP(=S)(OCC)Oc1ccc([N+](=O)[O-])cc1 [Parathion] | -1.193 | – | –
CN(C)[C@@H]1C(O)=C(C(N)=O)C(=O)[C@@]2(O)C(O)=C3C(=O)c4c(O)cccc4[C@@](C)(O)[C@H]3[C@H](O)[C@@H]12 [Oxytetracycline dihydrate] | – | 21.6384 | % Dead cells (vehicle subtracted) (mouse, 24 h, 0.1 µM): -3.324%; % Dead cells (vehicle subtracted) (mouse, 24 h, 1 µM): -0.5636%
CNC(=O)Oc1cccc(N=CN(C)C)c1 [Formetanate hydrochloride] | 1.887 | – | –
CC(C)[C@H](C(=O)O[C@H](C#N)c1cccc(Oc2ccccc2)c1)c1ccc(Cl)cc1 [Esfenvalerate] | 4.898 | – | –
COP(=O)(OC)SCn1c(=O)oc2cc(Cl)cnc21 [Azamethiphos] | -0.5762 | – | –
CS(=O)(=O)c1cc(C(F)(F)F)ccc1C(=O)c1cnoc1C1CC1 [Isoxaflutole] | – | 2.416 | –
CCSC(=O)N(CC)C1CCCCC1 [Cycloate] | – | 2.452 | –
COc1ccc(-c2ccccc2)cc1NNC(=O)OC(C)C [Bifenazate] | – | 0.1333 | –
CNC(=S)[S-].O.O.[Na+] [Metam-sodium hydrate] | -1.491 | – | –
Metiram-zinc | -0.5751 | – | –
CC(C)(c1ccc(O)cc1)c1ccc(O)cc1.CC(C)(c1ccc(O)cc1)c1ccc(O)cc1 | 0.9627 | – | –
CCCN(CCC)C(=O)SCC [EPTC] | 3.437 | – | –
COC(=O)NS(=O)(=O)c1ccc(N)cc1 [Asulam] | – | 1.255 | –

Compound | % Dead cells (vehicle subtracted) [%] | % Dead cells (vehicle subtracted) (mouse, 24 h, 10 µM) [%] | also measured
CSC(=O)c1cccc2nnsc12 | -0.1497 | – | –
CCCCOC(=O)c1ccccc1C(=O)O | 5.2539 | – | –
N#CSCSc1nc2ccccc2s1 | -1.603 | – | –
CC(C)(C)[C@@H](O)[C@@H](Cc1ccc(Cl)cc1)n1cncn1 (racemic) [Paclobutrazol] | – | -2.562 | –
O=c1n(Cl)c(=O)n(Cl)c(=O)n1Cl [Symclosene (Trichloro-s-triazinetrione)] | 4.474 | – | –
CCC(C)(CC)c1cc(NC(=O)c2c(OC)cccc2OC)on1 [Isoxaben] | – | -1.274 | –
C=CCOC(Cn1ccnc1)c1ccc(Cl)cc1Cl (centres unmarked) [Imazalil] | 0.2633 | – | –
CCOc1cc(Oc2ccc(C(F)(F)F)cc2Cl)ccc1[N+](=O)[O-] [Oxyfluorfen] | -3.765 | – | –
CC1(C(=O)Nc2ccc(O)c(Cl)c2Cl)CCCCC1 [Fenhexamid] | – | -0.6431 | –
OC(c1ccc(Cl)cc1)(c1ccc(Cl)cc1)C(Cl)(Cl)Cl [Dicofol] | – | 1.054 | –
CCSC(=O)N1CCCCCC1 [Molinate] | 7.609 | – | –
Cc1nn(-c2cc(NS(C)(=O)=O)c(Cl)cc2Cl)c(=O)n1C(F)F [Sulfentrazone] | – | -1.513 | –
COP(=O)(OC)OC(Br)C(Cl)(Cl)Br (centres unmarked) [Naled] | -0.709 | – | –
O=S1OCC2C(CO1)C1(Cl)C(Cl)=C(Cl)C2(Cl)C1(Cl)Cl (centres unmarked) [Endosulfan] | -0.8816 | – | –
O=C(O)c1c(Cl)ccc2cc(Cl)cnc12 [Quinclorac] | -1.41 | – | –
CNC(=O)O/N=C/C(C)(C)SC [Aldicarb] | -0.4371 | – | –
CC(C)=CC1C(C(=O)OCN2C(=O)C3=C(CCCC3)C2=O)C1(C)C (centres unmarked) [Tetramethrin] | -2.018 | – | –
CC1(C)C(C(=O)OC(C#N)c2cccc(Oc3ccccc3)c2)C1(C)C (centres unmarked) [Fenpropathrin (Danitol)] | -1.601 | – | –
COP(=S)(OC)Oc1ccc([N+](=O)[O-])cc1 [Parathion-methyl] | 1.486 | – | –
O=C(O)c1nc(Cl)ccc1Cl | -1.907 | – | –
COC(=O)C(C)Oc1ccc(Oc2ccc(Cl)cc2Cl)cc1 (centres unmarked) [Diclofop-methyl] | -2.902 | – | –
CCOC(=O)CC(SP(=O)(OC)OC)C(=O)OCC (centres unmarked) [Malaoxon] | -0.008689 | – | –

Compound | % Dead cells (vehicle subtracted) [%] | % Dead cells (vehicle subtracted) (mouse, 24 h, 10 µM) [%] | also measured
S=C([S-])NCCNC(=S)[S-].[Mn+2] [Maneb] | 6.097 | – | –
CC(C)Nc1nc(Cl)nc(NC(C)C)n1 | 0.5652 | – | –
Clc1nc(Cl)nc(Nc2ccccc2Cl)n1 | -1.572 | – | –
COC(=O)N(C(=O)N1CO[C@@]2(C(=O)OC)Cc3cc(Cl)ccc3C2=N1)c1ccc(OC(F)(F)F)cc1 [Indoxacarb] | – | 0.6208 | –
CCCCOC(=O)[C@@H](C)Oc1ccc(Oc2ccc(C#N)cc2F)cc1 [Cyhalofop-butyl] | 0.4476 | – | –
C=CCOC(=O)C(C)(C)OC(=O)c1cc(-n2c(=O)cc(C(F)(F)F)n(C)c2=O)ccc1Cl [Butafenacil] | – | -4.681 | –
CCc1ccc(C(=O)NN(C(=O)c2cc(C)cc(C)c2)C(C)(C)C)cc1 [Tebufenozide] | -1.661 | – | –
CCCN(CC)CC1COC2(CCC(C(C)(C)C)CC2)O1 (centres unmarked) [Spiroxamine] | – | 7.8727 | –
CCCCC(CC)CN1C(=O)C2C3C=CC(C3)C2C1=O (centres unmarked) | -0.09059 | – | –
COC(=O)c1ccccc1CS(=O)(=O)NC(=O)Nc1nc(OC)cc(OC)n1 [Bensulfuron-methyl] | – | -2.606 | –
COP(=S)(OC)SCn1nnc2ccccc2c1=O [Azinphos-methyl] | -0.9211 | – | –
CCCOC(=O)NCCCN(C)C [Propamocarb hydrochloride] | -1.887 | – | –
Clc1cccc(C(Cl)(Cl)Cl)n1 [Nitrapyrin] | – | 0.473 | –
COCC(=O)N(c1c(C)cccc1C)C(C)C(=O)OC (centres unmarked) [Metalaxyl] | 0.5361 | – | –
CC(C)OC(=O)Nc1cccc(Cl)c1 [Chlorpropham] | – | -1.179 | –
CNc1cnn(-c2cccc(C(F)(F)F)c2)c(=O)c1Cl [Norflurazon] | -0.1097 | – | –
CCOP(=S)(Oc1cnc(C(C)(C)C)nc1)OC(C)C (centres unmarked) [Tebupirimfos] | 0.1923 | – | –
CCCOC/C(=N\c1ccc(Cl)cc1C(F)(F)F)n1ccnc1 [Triflumizole] | – | 1.241 | –
COc1cnc(OC)n2nc(NS(=O)(=O)c3c(OCC(F)F)cccc3C(F)(F)F)nc12 [Penoxsulam] | – | -0.3089 | –
CNC(=O)N(C)c1nnc(C(C)(C)C)s1 [Tebuthiuron] | -0.9604 | – | –
Clc1ccccc1-c1nnc(-c2ccccc2Cl)nn1 [Clofentezine] | 0.4977 | – | –
